The NIST ThermoML archive (doi:10.1016/j.tca.2006.05.019)
“And” between values parts separate entries of the source, which are not always exact repeats. Equal entries are not always repeated.

Assay: molar heat capacity at constant pressure
Settings: 101.33 kPa, Crystal, Vacuum adiabatic calorimetry

O=P([O-])([O-])[O-].[Lu+3] [lutetium phosphate]
Settings | molar heat capacity at constant pressure
6 K | 0.0357 J/K/mol
6.51 K | 0.0482 J/K/mol
7.08 K | 0.04711 J/K/mol
7.62 K | 0.06861 J/K/mol
8 K | 0.0845 J/K/mol
8.12 K | 0.1033 J/K/mol
8.6 K | 0.1229 J/K/mol
9.16 K | 0.1232 J/K/mol
9.76 K | 0.1438 J/K/mol
10 K | 0.165 J/K/mol
10.35 K | 0.1797 J/K/mol
10.95 K | 0.1984 J/K/mol
11.52 K | 0.2437 J/K/mol
12 K | 0.286 J/K/mol
12.05 K | 0.2931 J/K/mol
12.7 K | 0.351 J/K/mol
13.5 K | 0.4239 J/K/mol
14 K | 0.455 J/K/mol
14.29 K | 0.5003 J/K/mol
15.07 K | 0.5881 J/K/mol
15.96 K | 0.7241 J/K/mol
16 K | 0.676 J/K/mol
16.71 K | 0.8304 J/K/mol
17.45 K | 0.9728 J/K/mol
18 K | 0.962 J/K/mol
18.21 K | 1.085 J/K/mol
18.94 K | 1.201 J/K/mol
19.66 K | 1.318 J/K/mol
20 K | 1.32 J/K/mol
21.37 K | 1.733 J/K/mol
23.76 K | 2.354 J/K/mol
25 K | 2.54 J/K/mol
26.16 K | 3.067 J/K/mol
28.57 K | 3.861 J/K/mol
30 K | 4.26 J/K/mol
30.99 K | 4.819 J/K/mol
33.41 K | 5.784 J/K/mol
35 K | 6.39 J/K/mol
35.85 K | 6.862 J/K/mol
38.3 K | 7.989 J/K/mol
40 K | 8.83 J/K/mol
40.76 K | 9.131 J/K/mol
43.21 K | 10.48 J/K/mol
45 K | 11.45 J/K/mol
45.69 K | 11.91 J/K/mol
48.16 K | 13.16 J/K/mol
50 K | 14.18 J/K/mol
50.64 K | 14.44 J/K/mol
53.13 K | 15.87 J/K/mol
55 K | 16.93 J/K/mol
55.63 K | 17.16 J/K/mol
58.13 K | 18.55 J/K/mol
60 K | 19.67 J/K/mol
60.65 K | 19.95 J/K/mol
63.14 K | 21.38 J/K/mol
65 K | 22.38 J/K/mol
65.64 K | 22.73 J/K/mol
68.13 K | 23.87 J/K/mol
70 K | 25.05 J/K/mol
70.62 K | 25.39 J/K/mol
73.11 K | 26.96 J/K/mol
75 K | 27.68 J/K/mol
75.6 K | 28.21 J/K/mol
78.1 K | 29.35 J/K/mol
80 K | 30.26 J/K/mol
80.6 K | 30.69 J/K/mol
83.1 K | 31.8 J/K/mol
83.67 K | 31.97 J/K/mol
85 K | 32.8 J/K/mol
87.39 K | 33.75 J/K/mol
90 K | 35.28 J/K/mol
91 K | 35.61 J/K/mol
94.62 K | 37.52 J/K/mol
95 K | 37.72 J/K/mol
98.23 K | 39.26 J/K/mol
100 K | 40.1 J/K/mol
101.84 K | 41.01 J/K/mol
105.45 K | 42.73 J/K/mol
109.04 K | 44.39 J/K/mol
110 K | 44.74 J/K/mol
112.63 K | 45.93 J/K/mol
116.21 K | 47.44 J/K/mol
119.79 K | 49.06 J/K/mol
120 K | 49.17 J/K/mol
123.37 K | 50.6 J/K/mol
126.95 K | 52.07 J/K/mol
130 K | 53.39 J/K/mol
130.52 K | 53.52 J/K/mol
134.08 K | 54.89 J/K/mol
134.32 K | 54.86 J/K/mol
137.64 K | 56.24 J/K/mol
137.89 K | 56.62 J/K/mol
140 K | 57.42 J/K/mol
141.14 K | 57.72 J/K/mol
144.67 K | 59.01 J/K/mol
148.2 K | 60.39 J/K/mol
150 K | 61.25 J/K/mol
151.73 K | 61.98 J/K/mol
152.2 K | 62.31 J/K/mol
155.77 K | 63.71 J/K/mol
159.34 K | 65.02 J/K/mol
160 K | 64.87 J/K/mol
162.89 K | 66.21 J/K/mol
166.44 K | 67.34 J/K/mol
169.99 K | 68.5 J/K/mol
170 K | 68.32 J/K/mol
173.53 K | 69.66 J/K/mol
177.02 K | 70.76 J/K/mol
180 K | 71.58 J/K/mol
180.54 K | 71.85 J/K/mol
184.06 K | 72.87 J/K/mol
187.57 K | 73.85 J/K/mol
190 K | 74.68 J/K/mol
191.08 K | 75.02 J/K/mol
194.58 K | 76.04 J/K/mol
198.07 K | 77.09 J/K/mol
200 K | 77.61 J/K/mol
201.56 K | 78.14 J/K/mol
205.03 K | 78.99 J/K/mol
208.5 K | 79.97 J/K/mol
210 K | 80.41 J/K/mol
211.96 K | 80.72 J/K/mol
215.42 K | 81.51 J/K/mol
218.87 K | 82.45 J/K/mol
220 K | 83.06 J/K/mol
222.31 K | 83.48 J/K/mol
225.73 K | 84.25 J/K/mol
229.14 K | 85.1 J/K/mol
230 K | 85.6 J/K/mol
233.68 K | 86.38 J/K/mol
235.82 K | 87.08 J/K/mol
237.13 K | 87.2 J/K/mol
239.2 K | 87.62 J/K/mol
240 K | 88.01 J/K/mol
242.56 K | 88.31 J/K/mol
245.94 K | 89.1 J/K/mol
249.32 K | 90.16 J/K/mol
250 K | 90.31 J/K/mol
250.77 K | 90.59 J/K/mol
254.14 K | 91.42 J/K/mol
255.94 K | 91.8 J/K/mol
259.22 K | 92.4 J/K/mol
260 K | 92.51 J/K/mol
260.67 K | 92.92 J/K/mol
263.97 K | 93.72 J/K/mol
267.27 K | 94.37 J/K/mol
270 K | 94.6 J/K/mol
270.55 K | 94.95 J/K/mol
273.81 K | 95.59 J/K/mol
277.04 K | 96.19 J/K/mol
278.55 K | 96.28 J/K/mol and 96.26 J/K/mol
280 K | 96.61 J/K/mol
280.25 K | 96.75 J/K/mol
281.69 K | 96.92 J/K/mol and 96.9 J/K/mol
283.44 K | 97.38 J/K/mol
284.59 K | 97.37 J/K/mol
286.58 K | 97.91 J/K/mol
287.72 K | 97.96 J/K/mol
289.7 K | 98.45 J/K/mol
290 K | 98.53 J/K/mol
290.83 K | 98.55 J/K/mol
292.79 K | 99.14 J/K/mol
293.91 K | 99.28 J/K/mol
295.89 K | 99.69 J/K/mol
296.98 K | 99.82 J/K/mol
298.92 K | 100.3 J/K/mol
300 K | 100.4 J/K/mol
300.03 K | 100.5 J/K/mol
303.01 K | 100.9 J/K/mol
306.01 K | 101.4 J/K/mol
309.71 K | 101.9 J/K/mol
310 K | 102.1 J/K/mol
312.4 K | 102.4 J/K/mol
315.23 K | 102.9 J/K/mol
318.03 K | 103.6 J/K/mol
320 K | 103.8 J/K/mol
